Measured values as given in PubChem BioAssay AID812 (SRMLSC, 2007).
Calls of active or inactive are those of the source. The rule behind the calls is not given here.

System: Saccharomyces cerevisiae lifespan extension, no nicotinamide
Assay: yeast lifespan extension without nicotinamide, confirmation, yeast lifespan extension project, S. cerevisiae (AID 812);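 note: growth read as optical density after 42 hours of incubation at 30C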

| Compound | EC50 |
| --- | --- |
| COCCCN(C(=S)Nc1cc(Cl)cc(Cl)c1)C(C)c1ccncc1 (stereo unspecified) | > 40 µM (inactive) |
| CCn1c(/C=N/c2nc3ccccc3n2C)nc2ccccc21 | > 40 µM (inactive) |
| CC1(C)Cc2ccccc2-c2nnc(SCC(=O)Nc3ccc4c(c3)OCO4)n21 | > 40 µM (inactive) |
| CCCC[n+]1c(-c2ccc(Cl)cc2Cl)csc1Nc1ccccc1 | > 40 µM (inactive) |
| O=c1cc(O)c2c(=O)n(-c3ccccc3)c3c(c2o1)CCCCC3 | > 40 µM (inactive) |
| O=C(CCc1ccccc1)NCCCN1CCOCC1 | > 40 µM (inactive) |
| O=C1C(=C(O)c2ccccc2)C(=O)c2ccccc21 | > 40 µM (inactive) |
| Cc1ccnc(-n2c(C)cc(/C=C3\C(=O)NC(=S)N(C)C3=O)c2C)c1 | > 40 µM (inactive) |
| Cc1ccc(C(C2=C(O)CC(C)(C)CC2=O)C2C(=O)CC(C)(C)CC2=O)o1 (stereo unspecified) | > 40 µM (inactive) |
| O=C(NCc1ccco1)c1cc(C(=O)C2CCCCC2)c[nH]1 | > 40 µM (inactive) |
| COc1ccc(N(C)C(=S)Nc2ccc3nc(C)c(C)nc3c2)cc1 | > 40 µM (inactive) |
| CCOc1ccc(/C=C/C(=O)c2c(O)c3ccccc3oc2=O)cc1 | > 40 µM (inactive) |
| CCCCC(=Nc1ccccc1OC)C1=C(O)CC(c2ccccc2)CC1=O (stereo unspecified) | > 40 µM (inactive) |
| C/C(=N\NC(=O)c1ccccc1O)c1c(O)cc(C)oc1=O | > 40 µM (inactive) |
| N#Cc1cc(C(=O)c2cc(F)ccc2O)cn(-c2nccs2)c1=O | > 40 µM (inactive) |
| CN(c1ccccc1)c1nc2ccsc2c(=O)s1 | > 40 µM (inactive) |
| CN(C)/C=C(/C(=O)c1ccc(Cl)cc1Cl)S(=O)(=O)c1ccccc1 | > 40 µM (inactive) |
| CC(=O)Nc1ccc(C(=O)CSc2nnc(-c3ccc(O)cc3)n2CC2CCCO2)cc1 (stereo unspecified) | > 40 µM (inactive) |
| C=C(C(=O)c1ccccc1)C(CC(=O)c1ccccc1)c1ccccc1 (stereo unspecified) | > 40 µM (inactive) |
| O=C(Nc1nc2ccccc2n1CCN1CCOCC1)c1cn(-c2ccccc2)nc1-c1ccccc1 | > 40 µM (inactive) |
| CCN(CCO)C(=O)C12CCC(C)(C(=O)C1)C2(C)C (stereo unspecified) | > 40 µM (inactive) |
| COc1cnc(-c2ccccn2)nc1Sc1cccc(Cl)c1 | > 40 µM (inactive) |
| Cc1cc(C(=O)CN2C(=O)NC(C)(CC(C)C)C2=O)c(C)n1-c1ccc2c(c1)OCO2 (stereo unspecified) | > 40 µM (inactive) |
| CC1Cc2ccccc2N1C(=O)Cn1cnc2ccccc2c1=O (stereo unspecified) | > 40 µM (inactive) |
| O=C1c2ccccc2C(=O)N1OCc1ccccc1 | > 40 µM (inactive) |
| CC1(C)CC2c3cccc(C(=O)O)c3C(=O)N2c2c1ccc1ccccc21 (stereo unspecified) | > 40 µM (inactive) |

| Compound | EC50 |
| --- | --- |
| C=CS(=O)(=O)c1ccc(Oc2ccc(S(=O)(=O)C=C)cc2)cc1 | > 40 µM (inactive) |
| CCSc1nnc(NC(=O)CSc2nc(C)cc(C)n2)s1 | > 40 µM (inactive) |
| CCOC(=O)CN1C(=O)N[C@H](c2ccc(Br)cc2)C(C(C)=O)=C1C | > 40 µM (inactive) |
| C=C(C(=O)c1ccccc1)C(C)C(=C)C(=O)c1ccccc1 | > 40 µM (inactive) |
| CCCc1cc(=O)oc2cc(C)c(CN3CCCC3)c(O)c12 | > 40 µM (inactive) |
| Cc1ccnc(N=Cc2c(O)ccc3oc4c(c23)CCCC4)c1 | > 40 µM (inactive) |
| Cc1[nH]nc2nc3c(c(OC(=O)c4ccccc4)c12)c(=O)n(C)c(=O)n3C | > 40 µM (inactive) |
| COc1ccc(/C(O)=C/C(=O)C(=O)Nc2c(C)n(C)n(-c3ccccc3)c2=O)cc1 | > 40 µM (inactive) |
| COc1ccc(NCc2nc3ccccc3n2CCOc2ccccc2)cc1 | > 40 µM (inactive) |
| CC(C)C(C(=O)O)N1C(=O)/C(=C/c2cccn2C)SC1=S (stereo unspecified) | > 40 µM (inactive) |
| Cc1ccc(CNc2nc3ccccc3s2)s1 | > 40 µM (inactive) |
| CCOC(=O)C1CCN(C(c2cc3ccc(C)c(C)c3[nH]c2=O)c2nnnn2C2CCCCC2)CC1 (stereo unspecified) | > 40 µM (inactive) |
| CCCCCC(=O)N1CCN(CCN=CC2=C(O)CC(c3ccc(OC)c(OC)c3)CC2=O)CC1 (stereo unspecified) | > 40 µM (inactive) |
| O=C1c2ccccc2C(Nc2ccc3c(c2)OCCO3)N1c1ccccn1 (stereo unspecified) | > 40 µM (inactive) |
| CN1C/C(=C/c2cccnc2)C(=O)/C(=C/c2cccnc2)C1 | > 40 µM (inactive) |
| Cc1ccc(NC(=O)C2C(=O)N(C)c3ccccc32)cc1 (stereo unspecified) | > 40 µM (inactive) |
| CCC(C)OC(=O)C1C(c2ccccc2)C(C(=O)O)C1c1ccccc1 (stereo unspecified) | > 40 µM (inactive) |
| Cc1ccc(C(=O)OC2=CC(=O)CC(C)(C)C2)cc1 | > 40 µM (inactive) |
| N#CSCC(=O)N1c2ccccc2CCc2ccccc21 | > 40 µM (inactive) |
| C/C=C/Cn1c(N2CCCCCC2)nc2c1c(=O)[nH]c(=O)n2C | > 40 µM (inactive) |
| Cc1ccc(/C(O)=C2\C(=O)C(=O)N(c3cc(C)on3)C2c2cccc(Cl)c2)cc1 (stereo unspecified) | > 40 µM (inactive) |
| CCCCNC(=O)/C(C#N)=C/c1cccnc1 | > 40 µM (inactive) |
| O=C(Nc1cccc(Cl)c1)c1ccc2c(=O)n3c(nc2c1)CCCCC3 | > 40 µM (inactive) |
| Cc1nc2c(=O)n(C)c(=O)n(C)c2nc1Cl | > 40 µM (inactive) |
| O=c1cc(O)c2c(=O)n(-c3ccccc3)c3c(c2o1)CCCCCC3 | > 40 µM (inactive) |
| Cc1ccccc1Oc1cc(-n2ncc(Cl)c(Cl)c2=O)ncn1 | > 40 µM (inactive) |

| Compound | EC50 |
| --- | --- |
| COc1ccc2c(=O)c3c(=O)n(Cc4ccco4)c(-c4ccc(C)cc4)nc3oc2c1 | > 40 µM (inactive) |
| CCCn1c(C)cc(C(=O)COc2ncnc3sccc23)c1C | > 40 µM (inactive) |
| COc1cccc(/C=C/C(=O)c2c(O)cc(C)oc2=O)c1O | > 40 µM (inactive) |
| CCCCC(c1nnnn1CC1CCCO1)N1CCN(c2nc3ccccc3s2)CC1 (stereo unspecified) | > 40 µM (inactive) |
| O=CN(/C=C1\Sc2ccccc2C1=O)Cc1ccccc1 | > 40 µM (inactive) |
| O=C(NCc1ccc(Cl)cc1)c1ccccc1CCc1ccccc1 | > 40 µM (inactive) |
| CC(=O)Oc1oc(-c2ccccc2)nc1C=Nc1ccccc1 | > 40 µM (inactive) |
| CN1CCN(CC(=O)Nc2ccc(Cl)cc2Cl)CC1 | > 40 µM (inactive) |
| CCCC(=O)C1C(=O)CC(CC(C)SCC)CC1=O (stereo unspecified) | > 40 µM (inactive) |
| Cc1cc(C2C(C#N)=C(N)Oc3n[nH]c(C)c32)c(C)s1 (stereo unspecified) | > 40 µM (inactive) |
| COc1cc(OC)cc(-c2nc3ccccc3c(=O)n2OC(=O)c2ccc(Br)cc2)c1 | > 40 µM (inactive) |
| CC1=NN(c2ccc(C(F)(F)F)cn2)C(=O)C1 | > 40 µM (inactive) |
| CC1C/C(=C\c2cccnc2)C(=O)/C(=C/c2cccnc2)C1 (stereo unspecified) | > 40 µM (inactive) |
| Cc1ccc(C)c(N2CCN(S(=O)(=O)c3c(C)noc3/C=C/N(C)C)CC2)c1 | > 40 µM (inactive) |
| COc1ccc(C(=O)Nc2ccc(OCc3ccccc3)cc2)cc1[N+](=O)[O-] | > 40 µM (inactive) |
| CC(C)c1ccc(C2=C(O)c3ccccc3C(=O)C2=O)cc1 | > 40 µM (inactive) |
| N=c1c2c(-c3ccccc3)c(-c3ccccc3)n(Cc3ccco3)c2ncn1CCCn1ccnc1 | > 40 µM (inactive) |
| O=C1C(Cl)=C(Nc2ccccc2O)C(=O)N1CCc1ccccc1 | > 40 µM (inactive) |
| Fc1cccc2sc(Nc3nnc(-c4ccco4)o3)nc12 | > 40 µM (inactive) |
| COc1ccc2c3c(cccc13)C(=O)N(O)C2=O | > 40 µM (inactive) |
| CS(=O)(=O)c1nc(-c2ccco2)cc(C(F)(F)F)n1 | > 40 µM (inactive) |
| COc1ccc(C2CC23N=C(c2ccccc2)OC3=O)cc1 (stereo unspecified) | > 40 µM (inactive) |
| CC[n+]1c(/C=C2\C=C(C)CC(C)(C)C2)sc2ccccc21 | > 40 µM (inactive) |
| CCC1C/C(=C\c2cccnc2)C(=O)/C(=C/c2cccnc2)C1 (stereo unspecified) | > 40 µM (inactive) |
| COc1ccc(-c2cc(C(F)(F)F)nc(S(C)(=O)=O)n2)cc1OC | > 40 µM (inactive) |
| COC(=O)C1=C(C(=O)OC)SC(=C2C(=S)C(C)(C)N(C(=O)C(C)C)c3ccccc32)S1 | > 40 µM (inactive) |

| Compound | EC50 |
| --- | --- |
| Cc1ccnc(SCc2cc(=O)c(OC(=O)c3ccco3)co2)n1 | > 40 µM (inactive) |
| O=C1c2ccccc2NC(c2cnc3ccccc3n2)N1O (stereo unspecified) | > 40 µM (inactive) |
| CCOc1ccc(N=Cc2c(O)c3ccccc3oc2=O)cc1 | > 40 µM (inactive) |
| Cc1nonc1NC(=O)CSc1nc(C2CCCCC2)nc2ccccc12 | > 40 µM (inactive) |
| CCSc1nnc(NC(=O)C2(C)Cc3ccccc3C(=O)O2)s1 (stereo unspecified) | > 40 µM (inactive) |
| O=c1c(-c2ccc(Cl)cc2)[n+]([O-])c2ccccc2n1OCc1ccccn1 | > 40 µM (inactive) |
| O=C1/C(=C\c2cccnc2)CN(Cc2ccccc2)C/C1=C\c1cccnc1 | > 40 µM (inactive) |
| Cc1[nH]n(-c2ccccc2)c(=O)c1N=Nc1nccs1 | > 40 µM (inactive) |
| Cc1ccc(N(C(=O)CS(=O)CC(=O)Nc2ccc(F)cc2)C(C(=O)NC2CCCCC2)c2ccco2)cc1 (stereo unspecified) | > 40 µM (inactive) |
| CCOC(=O)C1C(=O)C(C(C)=O)C(=O)CC1CC(C)SCC (stereo unspecified) | > 40 µM (inactive) |
| CC1(C)CC(=O)C2=C(C1)OC1=C(C(=O)CC(C)(C)C1)C2c1ccc(O)cc1O | > 40 µM (inactive) |
| NC(=S)N/N=C/c1coc2cc(Cl)ccc2c1=O | > 40 µM (inactive) |
| O=C(NC(=S)NNS(=O)(=O)c1ccccc1)c1ccc([N+](=O)[O-])cc1 | > 40 µM (inactive) |
| CCc1c(C)c(C#N)c2nc3ccccc3n2c1Cl | > 40 µM (inactive) |
| C=CCn1c(C)cc(C(=O)COc2ncnc3sccc23)c1C | > 40 µM (inactive) |
| Cc1nc2ccccc2n1-c1ccccc1 | > 40 µM (inactive) |
| COc1cccc(C(=O)Oc2cc(N)n(S(=O)(=O)c3ccc(C)cc3)n2)c1OC | > 40 µM (inactive) |
| Cc1cc(C)cc(CC2CC(=O)N(c3ccc(Cl)cn3)C2=O)c1 (stereo unspecified) | > 40 µM (inactive) |
| COC(=O)CSc1ncccc1-c1nc2ccccc2[nH]1 | > 40 µM (inactive) |
| O=C1CC(c2ccccc2)CC(O)=C1C=NCCN1CCOCC1 (stereo unspecified) | > 40 µM (inactive) |
| O=[N+]([O-])c1cc2oc3c(c2c(C=NCc2ccncc2)c1O)CCCC3 | > 40 µM (inactive) |
| CC(=O)Nc1nc(C)c(Oc2ccccc2)c(=O)[nH]1 | > 40 µM (inactive) |
| O=C(Nc1ccc(Br)cn1)c1cccc(-c2cc3ccccc3oc2=O)c1 | > 40 µM (inactive) |
